For orientation: Ki means the equilibrium dissociation constant of an inhibitor or competing ligand from its target.

The structures appear in SMILES notation. *1 amine or outer side, *2 acyl side, *3 side chain or, on linkers, in order; H or OH if unused. Where a SMILES comes first, the peptide text is derived from it. Bridges are numbered along the chain shown (N, C = ends). oXylylene = c1ccc(C[*:2])c(C[*:1])c1

The target in this assay is T1, Human Fibroblast Activation Protein (FAP) (Homo sapiens, UniProt Q12884).
T1 sequence (Q12884 1-760): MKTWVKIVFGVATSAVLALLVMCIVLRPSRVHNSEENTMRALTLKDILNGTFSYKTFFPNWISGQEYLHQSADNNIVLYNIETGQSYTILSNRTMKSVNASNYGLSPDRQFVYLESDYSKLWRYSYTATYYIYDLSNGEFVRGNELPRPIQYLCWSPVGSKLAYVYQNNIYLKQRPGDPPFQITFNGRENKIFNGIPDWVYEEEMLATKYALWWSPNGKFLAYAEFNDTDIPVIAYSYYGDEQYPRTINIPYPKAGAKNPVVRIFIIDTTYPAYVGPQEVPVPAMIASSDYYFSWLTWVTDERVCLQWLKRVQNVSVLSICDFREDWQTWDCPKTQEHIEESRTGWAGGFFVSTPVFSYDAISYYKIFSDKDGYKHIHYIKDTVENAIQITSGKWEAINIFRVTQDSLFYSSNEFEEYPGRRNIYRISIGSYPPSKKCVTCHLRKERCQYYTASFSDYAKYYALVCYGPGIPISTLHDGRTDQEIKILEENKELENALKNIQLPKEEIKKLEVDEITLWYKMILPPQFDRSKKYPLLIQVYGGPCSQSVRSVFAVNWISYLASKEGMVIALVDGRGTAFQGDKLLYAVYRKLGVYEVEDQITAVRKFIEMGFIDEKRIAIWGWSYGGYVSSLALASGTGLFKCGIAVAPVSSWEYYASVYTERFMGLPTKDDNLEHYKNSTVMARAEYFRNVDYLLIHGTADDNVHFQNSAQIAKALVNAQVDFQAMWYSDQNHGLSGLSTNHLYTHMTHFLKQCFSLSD
The assay can be described thus: Enzyme inhibition assay against human FAP (substrate Z-GP-AMC), Example 1. The format is biochemical. The settings on record: human FAP 5 ng/well, 50 μM Z-GP-AMC; Ki from IC50 by Cheng-Prusoff. The protocol:
Binding Affinity Against Human Fibroblast Activation Protein (FAP)
An enzyme inhibition assay was performed to determine IC50 values and then the Cheng-Prusoff equation used to calculate the Ki given a known Km of the substrate Z-GP-AMC for FAP. To perform the assay, FAP (5 ng/well) and the test peptide at varying concentrations (i.e. 10^−6 to 10^−12) were incubated in a black 96-well plate for 10 minutes at RT on a shaker plate. Then, the substrate Z-GP-AMC was added to give a final concentration of 50 μM. The total reaction volume per well was 100 μL The reaction was allowed to incubate at RT on a shaker plate for 1 hour protected from light, and then fluorescence read with a BioTek Synergy LX plate reader at an ex/em (360/40 and 460/40). Experiments were performed in at least duplicate, and controls of buffer only, buffer and FAP enzyme, and buffer with substrate and FAP enzyme only were included for comparison. The buffer used for the assay was 50 mM Tris-HCl, 1M NaCl, and 1 mg/mL BSA, pH=7.5. Data was plotted in GraphPad Prism and non-linear regression used to calculate IC50 values. The compounds tested and Ki values of each were as follows: […]
On to `CC(=O)NCC(=O)N[C@H]1CSCc2ccccc2CSC[C@@H](C(N)=O)NC(=O)[C@H](Cc2c[nH]c3ccccc23)NC(=O)[C@H](Cc2c[nH]c3ccccc23)NC(=O)[C@H](CCC(N)=O)NC(=O)[C@H](CCC(=O)O)NC(=O)[C@H](Cc2ccccc2)NC(=O)[C@@H]2CCCN2C(=O)[C@H]([C@@H](C)O)NC1=O` [VMT-FAP-1-1, Ac-G[C(oXdB)TPFEQWWC]-NH2] (Ac-GCTPFEQWWC-NH2; linker 2-10 via oXylylene), for which the Ki is 10.4 nM.

`CC(=O)N[C@@H](CCCNC(=N)N)C(=O)N[C@H]1CSCc2ccccc2CSC[C@@H](C(N)=O)NC(=O)[C@H](Cc2c[nH]c3ccccc23)NC(=O)[C@H](Cc2c[nH]c3ccccc23)NC(=O)[C@H](CCC(N)=O)NC(=O)[C@H](CCC(=O)O)NC(=O)[C@H](Cc2ccccc2)NC(=O)[C@@H]2CCCN2C(=O)[C@H]([C@@H](C)O)NC1=O` [VMT-FAP-1-13, Ac-R[C(oXdB)TPFEQWWC]-NH2] (Ac-RCTPFEQWWC-NH2; linker 2-10 via oXylylene): the Ki was found to be 2.82 nM.

On to `CC(=O)N[C@@H](CC(=O)O)C(=O)N[C@H]1CSCc2ccccc2CSC[C@@H](C(N)=O)NC(=O)[C@H](Cc2c[nH]c3ccccc23)NC(=O)[C@H](Cc2c[nH]c3ccccc23)NC(=O)[C@H](CCC(N)=O)NC(=O)[C@H](CCC(=O)O)NC(=O)[C@H](Cc2ccccc2)NC(=O)[C@@H]2CCCN2C(=O)[C@H]([C@@H](C)O)NC1=O` [VMT-FAP-1-14, Ac-D[C(oXdB)TPFEQWWC]-NH2] (Ac-DCTPFEQWWC-NH2; linker 2-10 via oXylylene), for which the Ki turned out to be 0.36 nM.

In the case of `CC(=O)N[C@@H](CC(N)=O)C(=O)N[C@H]1CSCc2ccccc2CSC[C@@H](C(N)=O)NC(=O)[C@H](Cc2c[nH]c3ccccc23)NC(=O)[C@H](Cc2c[nH]c3ccccc23)NC(=O)[C@H](CCC(N)=O)NC(=O)[C@H](CCC(=O)O)NC(=O)[C@H](Cc2ccccc2)NC(=O)[C@@H]2CCCN2C(=O)[C@H]([C@@H](C)O)NC1=O` [VMT-FAP-1-17, Ac-N[C(oXdB)TPFEQWWC]-NH2] (Ac-NCTPFEQWWC-NH2; linker 2-10 via oXylylene), the Ki amounted to 10.7 nM.

As for `CC(=O)N[C@@H](CC(N)=O)C(=O)N[C@H]1CSCc2ccccc2CSC[C@@H](C(N)=O)NC(=O)[C@H](Cc2c[nH]c3ccccc23)NC(=O)[C@H](Cc2c[nH]c3ccccc23)NC(=O)[C@H](CCC(N)=O)NC(=O)[C@H](CCC(=O)O)NC(=O)[C@H](Cc2c[nH]c3ccccc23)NC(=O)[C@@H]2CCCN2C(=O)[C@H]([C@@H](C)O)NC1=O` [VMT-FAP-1-62, Ac-N[C(oXdB)TPWEQWWC]-NH2] (Ac-NCTPWEQWWC-NH2; linker 2-10 via oXylylene), the inhibitory constant (Ki) was determined as 0.46 nM.

As to `CC(=O)N[C@@H](CC(N)=O)C(=O)N[C@H]1CSCc2ccccc2CSC[C@@H](C(N)=O)NC(=O)[C@H](Cc2c[nH]c3ccccc23)NC(=O)[C@H](Cc2c[nH]c3ccccc23)NC(=O)[C@H](CCC(N)=O)NC(=O)[C@H](CCC(=O)O)NC(=O)[C@H](Cc2c[nH]cn2)NC(=O)[C@@H]2CCCN2C(=O)[C@H]([C@@H](C)O)NC1=O` [VMT-FAP-1-64, Ac-N[C(oXdB)TPHEQWWC]-NH2] (Ac-NCTPHEQWWC-NH2; linker 2-10 via oXylylene), the Ki is 10.7 nM.

For `CC[C@H](C)[C@@H]1NC(=O)[C@H](CCC(=O)O)NC(=O)[C@H](Cc2ccccc2)NC(=O)[C@@H]2CCCN2C(=O)[C@H]([C@@H](C)O)NC(=O)[C@@H](NC(=O)[C@H](CO)NC(C)=O)CSCc2ccccc2CSC[C@@H](C(N)=O)NC(=O)[C@H](Cc2c[nH]c3ccccc23)NC(=O)[C@H](Cc2c[nH]c3ccccc23)NC1=O` [VMT-FAP-1-94, Ac-S[C(oXdB)TPFEIWWC]-NH2] (Ac-SCTPFEIWWC-NH2; linker 2-10 via oXylylene), the Ki was found to be 5.01 nM.

With `CC(=O)N[C@@H](CO)C(=O)N[C@H]1CSCc2ccccc2CSC[C@@H](C(N)=O)NC(=O)[C@H](Cc2c[nH]c3ccccc23)NC(=O)[C@H](Cc2c[nH]c3ccccc23)NC(=O)[C@H](Cc2c[nH]cn2)NC(=O)[C@H](CCC(=O)O)NC(=O)[C@H](Cc2ccccc2)NC(=O)[C@@H]2CCCN2C(=O)[C@H]([C@@H](C)O)NC1=O` [VMT-FAP-1-101, Ac-S[C(oXdB)TPFEHWWC]-NH2] (Ac-SCTPFEHWWC-NH2; linker 2-10 via oXylylene), the Ki was determined as 11.2 nM.

Take `CC(=O)N[C@@H](CO)C(=O)N[C@H]1CSCc2ccccc2CSC[C@@H](C(N)=O)NC(=O)[C@H](Cc2c[nH]c3ccccc23)NC(=O)[C@H](Cc2c[nH]c3ccccc23)NC(=O)[C@H](CC(=O)O)NC(=O)[C@H](CCC(=O)O)NC(=O)[C@H](Cc2ccccc2)NC(=O)[C@@H]2CCCN2C(=O)[C@H]([C@@H](C)O)NC1=O` [VMT-FAP-1-104, Ac-S[C(oXdB)TPFEDWWC]-NH2] (Ac-SCTPFEDWWC-NH2; linker 2-10 via oXylylene): the Ki was determined as 1.83 nM.

Regarding `CC(=O)N[C@@H](CO)C(=O)N[C@H]1CSCc2ccccc2CSC[C@@H](C(N)=O)NC(=O)[C@H](Cc2c[nH]c3ccccc23)NC(=O)[C@H](Cc2c[nH]c3ccccc23)NC(=O)[C@H](CCC(=O)O)NC(=O)[C@H](CCC(=O)O)NC(=O)[C@H](Cc2ccccc2)NC(=O)[C@@H]2CCCN2C(=O)[C@H]([C@@H](C)O)NC1=O` [VMT-FAP-1-105, Ac-S[C(oXdB)TPFEEWWC]-NH2] (Ac-SCTPFEEWWC-NH2; linker 2-10 via oXylylene), the Ki came out at 0.38 nM.

For the compound `CC(=O)N[C@@H](CO)C(=O)N[C@H]1CSCc2ccccc2CSC[C@@H](C(N)=O)NC(=O)[C@H](Cc2c[nH]c3ccccc23)NC(=O)[C@H](Cc2c[nH]c3ccccc23)NC(=O)[C@H](CCC(N)=O)NC(=O)[C@H](CCC(=O)O)NC(=O)[C@H](Cc2ccccc2)NC(=O)[C@@H]2CCCN2C(=O)[C@H]([C@@H](C)O)NC1=O` [VMT-FAP-2-12, Ac-S[C(oXdB)TPFEQWWC]-NH2] (Ac-SCTPFEQWWC-NH2; linker 2-10 via oXylylene), the Ki stood at 0.55 nM.

As to `C[C@H](N)C(=O)N[C@H]1CSCc2ccccc2CSC[C@@H](C(N)=O)NC(=O)[C@H](Cc2c[nH]c3ccccc23)NC(=O)[C@H](Cc2c[nH]c3ccccc23)NC(=O)[C@H](CCC(N)=O)NC(=O)[C@H](CCC(=O)O)NC(=O)[C@H](Cc2ccccc2)NC(=O)[C@@H]2CCCN2C(=O)[C@H]([C@@H](C)O)NC1=O` [VMT-FAP-2-19, A[C(oXdB)TPFEQWWC]-NH2] (H-ACTPFEQWWC-NH2; linker 2-10 via oXylylene; N-terminus assumed), the Ki was 0.45 nM.

On to `C[C@@H]1NC(=O)[C@H](CCC(=O)O)NC(=O)[C@H](Cc2ccccc2)NC(=O)[C@@H]2CCCN2C(=O)[C@H]([C@@H](C)O)NC(=O)[C@@H](NC(=O)[C@@H](N)CO)CSCc2ccccc2CSC[C@@H](C(N)=O)NC(=O)[C@H](Cc2c[nH]c3ccccc23)NC(=O)[C@H](Cc2c[nH]c3ccccc23)NC1=O` [VMT-FAP-2-23, S[C(oXdB)TPFEAWWC]-NH2] (H-SCTPFEAWWC-NH2; linker 2-10 via oXylylene; N-terminus assumed), for which the inhibitory constant (Ki) was determined as 0.29 nM.

Turning to `CC(=O)N[C@@H](CO)C(=O)N[C@H]1CSCc2ccccc2CSC[C@@H](C(N)=O)NC(=O)[C@H](Cc2ccc(O)cc2)NC(=O)[C@H](Cc2c[nH]c3ccccc23)NC(=O)[C@H](CCC(N)=O)NC(=O)[C@H](CCC(=O)O)NC(=O)[C@H](Cc2ccccc2)NC(=O)[C@@H]2CCCN2C(=O)[C@H]([C@@H](C)O)NC1=O` [VMT-FAP-2-28, Ac-S[C(oXdB)TPFEQWYC]-NH2] (Ac-SCTPFEQWYC-NH2; linker 2-10 via oXylylene), the inhibition constant (Ki) amounted to 2.29 nM.

(Values after patent publication US12514938B2, “Fibroblast activation protein targeting peptides” (PERSPECTIVE THERAPEUTICS, INC., priority 2023, dated 2026).)
